Laboratory results as given in ChEMBL document CHEMBL6177944, “Derivatization of ophiobolin A and cytotoxicity toward breast and glioblastoma cancer stem cells: Varying the ketone and unsaturated aldehyde moieties” (Bioorg Med Chem Lett, 2025).
Activity calls are given as the source filed them. No cut-off for these calls is given here.

Test system: not listed separately
Experiment: Selectivity index, ratio of IC50 for cytotoxicity against human MCF7 cells to IC50 for cytotoxicity against human MDA-MB-231 cells
Format: cell-based
Conditions: not given

With CC(C)=C[C@H]1C[C@H](C)[C@]2(CC[C@]3(C)C[C@H]4[C@@H](/C(CO)=C\C[C@H]32)[C@@H](O)C[C@@]4(C)O)O1 the “Ratio IC50” value was ~ 1.
For CC(C)=C[C@H]1C[C@H](C)[C@]2(CC[C@]3(C)C[C@H]4[C@H]5/C(=C\C[C@H]32)C(=O)O[C@H]5C[C@@]4(C)O)O1 [OPHIOBOLIN A LACTONE], the “Ratio IC50” value was ~ 0.74.
With CC(C)=C[C@H]1C[C@H](C)[C@]2(CC[C@]3(C)C[C@H]4[C@H]5/C(=C\C[C@H]32)CO[C@@]5(O)C[C@@]4(C)O)O1 the “Ratio IC50” value was ~ 0.84.
In the case of CC(C)=C[C@H]1C[C@H](C)[C@]2(CC[C@]3(C)C[C@H]4[C@H]5[C@@H](CC[C@H]32)[C@H](O)O[C@H]5C[C@@]4(C)O)O1, the “Ratio IC50” value is reported as ~ 1.1.
With CC(C)=C[C@H]1C[C@H](C)[C@]2(CC[C@]3(C)C[C@H]4[C@H]5/C(=C\C[C@H]32)C(O)O[C@H]5C[C@@]4(C)O)O1 (stereo partly specified) the “Ratio IC50” value was ~ 0.25.

Test system: not listed separately
Experiment: Cytotoxicity against human GBM43 cells
Format: functional, cell-based
Conditions: GBM43 cell

Point of comparison: CC(C)=C[C@H]1C[C@H](C)[C@]2(CC[C@]3(C)C[C@@H]4C(C)=CC(=O)[C@@H]4/C(CO)=C\C[C@H]32)O1, IC50 24 µM. Against it:
- CC(C)=C[C@H]1C[C@H](C)[C@]2(CC[C@]3(C)C[C@H]4[C@@H](/C(CO)=C\C[C@H]32)[C@@H](O)C[C@@]4(C)O)O1 — higher, > 1000 µM
- CC(C)=C[C@H]1C[C@H](C)[C@]2(CC[C@]3(C)C[C@H]4[C@H]5/C(=C\C[C@H]32)C(=O)O[C@H]5C[C@@]4(C)O)O1 [OPHIOBOLIN A LACTONE] — 2.8-fold lower, 8.6 µM
- CC(C)=C[C@H]1C[C@H](C)[C@]2(CC[C@]3(C)C[C@H]4[C@H]5[C@@H](CC[C@H]32)[C@H](O)O[C@H]5C[C@@]4(C)O)O1 — 15-fold higher, 363 µM
- CC1(C)CC/C=C(/C=O)[C@H]2C(=O)C[C@@](C)(O)[C@H]2C1 — 4.4-fold higher, 106 µM

Test system: HMLE
Experiment: (§1) Cytotoxicity against HMLE cells expressing Twist EMT+
Format: functional, cell-based
Conditions: Homo sapiens

In the case of COc1cccc2c1C(=O)c1c(O)c3c(c(O)c1C2=O)C[C@@](O)(C(=O)CO)C[C@@H]3O[C@H]1C[C@H](N)[C@H](O)[C@H](C)O1 [DOXORUBICIN], the Activity is reported as “inactive”.

Test system: not listed separately
Experiment: as §1
Format: functional, cell-based
Conditions: Homo sapiens

Point of comparison: CC(C)=C[C@H]1C[C@H](C)[C@]2(CC[C@]3(C)C[C@H]4[C@H]5/C(=C\C[C@H]32)C(O)O[C@H]5C[C@@]4(C)O)O1 (stereo partly specified), IC50 22.5 µM. Against it:
- CC(C)=C[C@H]1C[C@H](C)[C@]2(CC[C@]3(C)C[C@H]4[C@@H](/C(CO)=C\C[C@H]32)[C@@H](O)C[C@@]4(C)O)O1 — 6-fold higher, 134 µM
- CC(C)=C[C@H]1C[C@H](C)[C@]2(CC[C@]3(C)C[C@H]4[C@H]5/C(=C\C[C@H]32)C(=O)O[C@H]5C[C@@]4(C)O)O1 [OPHIOBOLIN A LACTONE] — 2.8-fold higher, 63.6 µM
- CC(C)=C[C@H]1C[C@H](C)[C@]2(CC[C@]3(C)C[C@H]4[C@H]5/C(=C\C[C@H]32)CO[C@@]5(O)C[C@@]4(C)O)O1 — 2.5-fold lower, 8.84 µM
- CC(C)=C[C@H]1C[C@H](C)[C@]2(CC[C@]3(C)C[C@H]4[C@H](C(=O)C[C@@]4(C)O)/C(C=O)=C\C[C@H]32)O1 [OPHIOBOLIN A] — 780-fold lower, 0.029 µM
- CC(C)=C[C@H]1C[C@H](C)[C@]2(CC[C@]3(C)C[C@H]4[C@H]5[C@@H](CC[C@H]32)[C@H](O)O[C@H]5C[C@@]4(C)O)O1 — 5.5-fold higher, 123 µM

Test system: MDA-MB-231
Experiment: Cytotoxicity against human MDA-MB-231 cells
Format: functional, cell-based
Conditions: not given

Point of comparison: CC(C)=C[C@H]1C[C@H](C)[C@]2(CC[C@]3(C)C[C@H]4[C@H]5/C(=C\C[C@H]32)C(O)O[C@H]5C[C@@]4(C)O)O1 (stereo partly specified), IC50 157 µM. Against it:
- CC(C)=C[C@H]1C[C@H](C)[C@]2(CC[C@]3(C)C[C@H]4[C@@H](/C(CO)=C\C[C@H]32)[C@@H](O)C[C@@]4(C)O)O1 — 2.4-fold higher, 384 µM
- CC(C)=C[C@H]1C[C@H](C)[C@]2(CC[C@]3(C)C[C@H]4[C@H]5/C(=C\C[C@H]32)C(=O)O[C@H]5C[C@@]4(C)O)O1 [OPHIOBOLIN A LACTONE] — 2-fold higher, 313 µM
- CC(C)=C[C@H]1C[C@H](C)[C@]2(CC[C@]3(C)C[C@H]4[C@H]5/C(=C\C[C@H]32)CO[C@@]5(O)C[C@@]4(C)O)O1 — within 1.5-fold, 128 µM
- CC(C)=C[C@H]1C[C@H](C)[C@]2(CC[C@]3(C)C[C@H]4[C@H]5[C@@H](CC[C@H]32)[C@H](O)O[C@H]5C[C@@]4(C)O)O1 — within 1.5-fold, 136 µM

Test system: not listed separately
Experiment: Selectivity index, ratio of IC50 for cytotoxicity against HMLE cells to IC50 for cytotoxicity against human HMLE cells expressing Twist EMT+
Format: toxicity, cell-based
Conditions: HMLE cells and HMLE cells expressing Twist (EMT+), read-out: Ratio IC50

Point of comparison: CC(C)=C[C@H]1C[C@H](C)[C@]2(CC[C@]3(C)C[C@H]4[C@H]5/C(=C\C[C@H]32)C(O)O[C@H]5C[C@@]4(C)O)O1 (stereo partly specified), selectivity ratio ~2.2. Against it:
- CC(C)=C[C@H]1C[C@H](C)[C@]2(CC[C@]3(C)C[C@H]4[C@@H](/C(CO)=C\C[C@H]32)[C@@H](O)C[C@@]4(C)O)O1 — lower, ~1
- CC(C)=C[C@H]1C[C@H](C)[C@]2(CC[C@]3(C)C[C@H]4[C@H]5/C(=C\C[C@H]32)C(=O)O[C@H]5C[C@@]4(C)O)O1 [OPHIOBOLIN A LACTONE] — lower, ~1.4
- CC(C)=C[C@H]1C[C@H](C)[C@]2(CC[C@]3(C)C[C@H]4[C@H]5/C(=C\C[C@H]32)CO[C@@]5(O)C[C@@]4(C)O)O1 — higher, ~2.9
- CC(C)=C[C@H]1C[C@H](C)[C@]2(CC[C@]3(C)C[C@H]4[C@H](C(=O)C[C@@]4(C)O)/C(C=O)=C\C[C@H]32)O1 [OPHIOBOLIN A] — lower, ~2.1
- CC(C)=C[C@H]1C[C@H](C)[C@]2(CC[C@]3(C)C[C@H]4[C@H]5[C@@H](CC[C@H]32)[C@H](O)O[C@H]5C[C@@]4(C)O)O1 — lower, ~0.47

Test system: not listed separately
Experiment: Cytotoxicity against HMLE cells assessed as reduction in cell viability at 1 uM relative to control
Format: toxicity, cell-based
Conditions: human

For COc1cccc2c1C(=O)c1c(O)c3c(c(O)c1C2=O)C[C@@](O)(C(=O)CO)C[C@@H]3O[C@H]1C[C@H](N)[C@H](O)[C@H](C)O1 [DOXORUBICIN], the Activity was under 50%.

Test system: not listed separately
Experiment: Cytotoxicity against HMLE cells
Format: toxicity, cell-based
Conditions: human

Point of comparison: CC(C)=C[C@H]1C[C@H](C)[C@]2(CC[C@]3(C)C[C@H]4[C@H]5/C(=C\C[C@H]32)C(O)O[C@H]5C[C@@]4(C)O)O1 (stereo partly specified), IC50 50.2 µM. Against it:
- CC(C)=C[C@H]1C[C@H](C)[C@]2(CC[C@]3(C)C[C@H]4[C@@H](/C(CO)=C\C[C@H]32)[C@@H](O)C[C@@]4(C)O)O1 — 2.8-fold higher, 140 µM
- CC(C)=C[C@H]1C[C@H](C)[C@]2(CC[C@]3(C)C[C@H]4[C@H]5/C(=C\C[C@H]32)C(=O)O[C@H]5C[C@@]4(C)O)O1 [OPHIOBOLIN A LACTONE] — 1.8-fold higher, 91 µM
- CC(C)=C[C@H]1C[C@H](C)[C@]2(CC[C@]3(C)C[C@H]4[C@H]5/C(=C\C[C@H]32)CO[C@@]5(O)C[C@@]4(C)O)O1 — 1.9-fold lower, 25.9 µM
- CC(C)=C[C@H]1C[C@H](C)[C@]2(CC[C@]3(C)C[C@H]4[C@H](C(=O)C[C@@]4(C)O)/C(C=O)=C\C[C@H]32)O1 [OPHIOBOLIN A] — 800-fold lower, 0.063 µM
- CC(C)=C[C@H]1C[C@H](C)[C@]2(CC[C@]3(C)C[C@H]4[C@H]5[C@@H](CC[C@H]32)[C@H](O)O[C@H]5C[C@@]4(C)O)O1 — within 1.5-fold, 58.1 µM

Test system: not listed separately
Experiment: Selectivity index, ratio of IC50 for cytotoxicity against human T98G cells to IC50 for cytotoxicity against human GBM43 cells
Format: functional
Conditions: not given

In the case of CC(C)=C[C@H]1C[C@H](C)[C@]2(CC[C@]3(C)C[C@@H]4C(C)=CC(=O)[C@@H]4/C(CO)=C\C[C@H]32)O1, the “Ratio IC50” value is reported as about 12.
For CC(C)=C[C@H]1C[C@H](C)[C@]2(CC[C@]3(C)C[C@H]4[C@H]5/C(=C\C[C@H]32)C(=O)O[C@H]5C[C@@]4(C)O)O1 [OPHIOBOLIN A LACTONE], the “Ratio IC50” value was about 12.
In the case of CC(C)=C[C@H]1C[C@H](C)[C@]2(CC[C@]3(C)C[C@H]4[C@H](C(=O)C[C@@]4(C)O)/C(C=O)=C\C[C@H]32)O1 [OPHIOBOLIN A], the “Ratio IC50” value is reported as about 9.
For CC(C)=C[C@H]1C[C@H](C)[C@]2(CC[C@]3(C)C[C@H]4[C@H]5[C@@H](CC[C@H]32)[C@H](O)O[C@H]5C[C@@]4(C)O)O1, the “Ratio IC50” value was about 1.2.
For CC1(C)CC/C=C(/C=O)[C@H]2C(=O)C[C@@](C)(O)[C@H]2C1, the “Ratio IC50” value was about 8.

Test system: T98G
Experiment: Cytotoxicity against human T98G cells
Format: functional, cell-based
Conditions: not given

Point of comparison: CC(C)=C[C@H]1C[C@H](C)[C@]2(CC[C@]3(C)C[C@H]4[C@H]5/C(=C\C[C@H]32)C(=O)O[C@H]5C[C@@]4(C)O)O1 [OPHIOBOLIN A LACTONE], IC50 102 µM. Against it:
- CC(C)=C[C@H]1C[C@H](C)[C@]2(CC[C@]3(C)C[C@@H]4C(C)=CC(=O)[C@@H]4/C(CO)=C\C[C@H]32)O1 — 2.9-fold higher, 298 µM
- CC(C)=C[C@H]1C[C@H](C)[C@]2(CC[C@]3(C)C[C@H]4[C@@H](/C(CO)=C\C[C@H]32)[C@@H](O)C[C@@]4(C)O)O1 — higher, > 1000 µM
- CC(C)=C[C@H]1C[C@H](C)[C@]2(CC[C@]3(C)C[C@H]4[C@H](C(=O)C[C@@]4(C)O)/C(C=O)=C\C[C@H]32)O1 [OPHIOBOLIN A] — 54-fold lower, 1.9 µM
- CC(C)=C[C@H]1C[C@H](C)[C@]2(CC[C@]3(C)C[C@H]4[C@H]5[C@@H](CC[C@H]32)[C@H](O)O[C@H]5C[C@@]4(C)O)O1 — 4.4-fold higher, 444 µM
- CC1(C)CC/C=C(/C=O)[C@H]2C(=O)C[C@@](C)(O)[C@H]2C1 — 8.4-fold higher, 859 µM

Test system: MCF7
Experiment: Cytotoxicity against human MCF7 cells
Format: functional, cell-based
Conditions: not given

Point of comparison: CC(C)=C[C@H]1C[C@H](C)[C@]2(CC[C@]3(C)C[C@H]4[C@H]5/C(=C\C[C@H]32)C(=O)O[C@H]5C[C@@]4(C)O)O1 [OPHIOBOLIN A LACTONE], IC50 232 µM. Against it:
- CC(C)=C[C@H]1C[C@H](C)[C@]2(CC[C@]3(C)C[C@H]4[C@@H](/C(CO)=C\C[C@H]32)[C@@H](O)C[C@@]4(C)O)O1 — 1.7-fold higher, 387 µM
- CC(C)=C[C@H]1C[C@H](C)[C@]2(CC[C@]3(C)C[C@H]4[C@H]5/C(=C\C[C@H]32)CO[C@@]5(O)C[C@@]4(C)O)O1 — 2.2-fold lower, 107 µM
- CC(C)=C[C@H]1C[C@H](C)[C@]2(CC[C@]3(C)C[C@H]4[C@H]5[C@@H](CC[C@H]32)[C@H](O)O[C@H]5C[C@@]4(C)O)O1 — 1.6-fold lower, 149 µM
- CC(C)=C[C@H]1C[C@H](C)[C@]2(CC[C@]3(C)C[C@H]4[C@H]5/C(=C\C[C@H]32)C(O)O[C@H]5C[C@@]4(C)O)O1 (stereo partly specified) — 5.9-fold lower, 39.6 µM
